In patent publication US20070027136A1, “Formulations of anthraquinone derivatives” (priority 2003, published 2007):

Assay: AQMN content before and after freeze drying
Assay type: physicochemical
Settings: 40 mg/ml, 10 mM sodium phosphate buffer pH 7.0
Description: Formulated AQ4N material was prepared at 40 mg/ml in 10 mM sodium phosphate buffer at pH 7.0. A portion of this solution was filled into ampoules and the remained into vials and freeze dried according to the cycle as specified in Tables 9 and 10.
The AQMN content of the samples before and after freeze drying (ampoule fill and vial fill, respectively) were measured as shown in Table 11.

AQMN content (% peak area w.r.t. std.): 22.6%
SMILES: C[N+](C)([O-])CCNc1ccc(NCC[N+](C)(C)[O-])c2c1C(=O)c1c(O)ccc(O)c1C2=O [AQ4N raw material]
